Source: PubChem BioAssay (NCI)
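In this assay, cells in 96-well plates receive the compound at five concentrations for 48 hours. Endpoints are linearly interpolated between the surrounding concentrations. The concentration for full growth arrest is given as TGI.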

Experiments:
Assay in all cases: NCI tumour cell line growth inhibition, 48 h
OVCAR-3 ovarian = tested on: OVCAR-3 ovarian
HT29 colon = tested on: HT29 colon
SF-295 CNS = tested on: SF-295 CNS
T-47D breast = tested on: T-47D breast
MDA-N = tested on: MDA-N
SNB-19 CNS = tested on: SNB-19 CNS
MALME-3M melanoma = tested on: MALME-3M melanoma
MDA-MB-231 breast = tested on: MDA-MB-231 breast
MDA-MB-435 = tested on: MDA-MB-435
HCC-2998 colon = tested on: HCC-2998 colon
SN12C renal = tested on: SN12C renal
UACC-62 melanoma = tested on: UACC-62 melanoma
NCI/ADR-RES ovarian = tested on: NCI/ADR-RES ovarian
NCI-H226 lung = tested on: NCI-H226 lung
COLO 205 colon = tested on: COLO 205 colon
NCI-H522 lung = tested on: NCI-H522 lung
HOP-62 NSCLC = tested on: HOP-62 NSCLC
SK-OV-3 ovarian = tested on: SK-OV-3 ovarian
EKVX NSCLC = tested on: EKVX NSCLC
RPMI-8226 leukemia = tested on: RPMI-8226 leukemia
SK-MEL-28 melanoma = tested on: SK-MEL-28 melanoma
HCT-116 colon = tested on: HCT-116 colon
A498 renal = tested on: A498 renal
UACC-257 melanoma = tested on: UACC-257 melanoma
UO-31 renal = tested on: UO-31 renal
NCI-H23 lung = tested on: NCI-H23 lung
CCRF-CEM leukemia = tested on: CCRF-CEM leukemia
MOLT-4 leukemia = tested on: MOLT-4 leukemia
786-0 renal = tested on: 786-0 renal
MCF7 breast = tested on: MCF7 breast
HS 578T breast = tested on: HS 578T breast
SR leukemia = tested on: SR leukemia
LOX IMVI melanoma = tested on: LOX IMVI melanoma
IGROV1 ovarian = tested on: IGROV1 ovarian
K-562 leukemia = tested on: K-562 leukemia
HL-60(TB) leukemia = tested on: HL-60(TB) leukemia
SK-MEL-5 melanoma = tested on: SK-MEL-5 melanoma
CAKI-1 renal = tested on: CAKI-1 renal
SW-620 colon = tested on: SW-620 colon
A549 NSCLC = tested on: A549 NSCLC
HCT-15 colon = tested on: HCT-15 colon
OVCAR-4 ovarian = tested on: OVCAR-4 ovarian
SF-268 CNS = tested on: SF-268 CNS
OVCAR-5 ovarian = tested on: OVCAR-5 ovarian
PC-3 prostate = tested on: PC-3 prostate
KM12 colon = tested on: KM12 colon
U251 CNS = tested on: U251 CNS
SK-MEL-2 melanoma = tested on: SK-MEL-2 melanoma
TK-10 renal = tested on: TK-10 renal
SF-539 CNS = tested on: SF-539 CNS
NCI-H460 lung = tested on: NCI-H460 lung
ACHN renal = tested on: ACHN renal
DU-145 prostate = tested on: DU-145 prostate
M14 melanoma = tested on: M14 melanoma
OVCAR-8 ovarian = tested on: OVCAR-8 ovarian
BT-549 breast = tested on: BT-549 breast
RXF 393 renal = tested on: RXF 393 renal

## Nc1ccc(CCN2CCN(CCCc3ccccc3)CC2)cc1
OVCAR-3 ovarian
  TGI: > 100 µM
HT29 colon
  TGI: > 100 µM
SF-295 CNS
  TGI: > 100 µM
T-47D breast
  TGI: 95.8 µM
MDA-N
  TGI: > 100 µM
SNB-19 CNS
  TGI: > 100 µM
MALME-3M melanoma
  TGI: > 100 µM
MDA-MB-231 breast
  TGI: > 100 µM
MDA-MB-435
  TGI: > 100 µM
HCC-2998 colon
  TGI: > 100 µM
SN12C renal
  TGI: > 100 µM
UACC-62 melanoma
  TGI: > 100 µM
NCI/ADR-RES ovarian
  TGI: > 100 µM
NCI-H226 lung
  TGI: > 100 µM
COLO 205 colon
  TGI: > 100 µM
NCI-H522 lung
  TGI: > 100 µM
HOP-62 NSCLC
  TGI: > 100 µM
SK-OV-3 ovarian
  TGI: > 100 µM
EKVX NSCLC
  TGI: > 100 µM
RPMI-8226 leukemia
  TGI: > 100 µM
SK-MEL-28 melanoma
  TGI: > 100 µM
HCT-116 colon
  TGI: > 100 µM
A498 renal
  TGI: > 100 µM
UACC-257 melanoma
  TGI: > 100 µM
UO-31 renal
  TGI: > 100 µM
NCI-H23 lung
  TGI: > 100 µM
CCRF-CEM leukemia
  TGI: > 100 µM
MOLT-4 leukemia
  TGI: > 100 µM
786-0 renal
  TGI: > 100 µM
MCF7 breast
  TGI: > 100 µM
HS 578T breast
  TGI: > 100 µM
SR leukemia
  TGI: > 100 µM
LOX IMVI melanoma
  TGI: > 100 µM
IGROV1 ovarian
  TGI: > 100 µM
K-562 leukemia
  TGI: > 100 µM
HL-60(TB) leukemia
  TGI: > 100 µM
SK-MEL-5 melanoma
  TGI: > 100 µM
CAKI-1 renal
  TGI: > 100 µM
SW-620 colon
  TGI: > 100 µM
A549 NSCLC
  TGI: > 100 µM
HCT-15 colon
  TGI: > 100 µM
OVCAR-4 ovarian
  TGI: > 100 µM
SF-268 CNS
  TGI: > 100 µM
OVCAR-5 ovarian
  TGI: > 100 µM
PC-3 prostate
  TGI: > 100 µM
KM12 colon
  TGI: > 100 µM
U251 CNS
  TGI: > 100 µM
SK-MEL-2 melanoma
  TGI: > 100 µM
TK-10 renal
  TGI: > 100 µM
SF-539 CNS
  TGI: > 100 µM
NCI-H460 lung
  TGI: > 100 µM
ACHN renal
  TGI: > 100 µM
DU-145 prostate
  TGI: > 100 µM
M14 melanoma
  TGI: > 100 µM
OVCAR-8 ovarian
  TGI: > 100 µM
BT-549 breast
  TGI: > 100 µM

## C=CCOC(=O)C1C2OC3(C(C(=O)OC)=C2C(=O)OC)c2ccccc2CCC13 (configuration not stated)
OVCAR-3 ovarian
  TGI: > 10 µM
HT29 colon
  TGI: > 10 µM
SF-295 CNS
  TGI: > 10 µM
T-47D breast
  TGI: > 10 µM
MDA-N
  TGI: > 10 µM
SNB-19 CNS
  TGI: > 10 µM
MALME-3M melanoma
  TGI: > 10 µM
MDA-MB-231 breast
  TGI: > 10 µM
MDA-MB-435
  TGI: > 10 µM
HCC-2998 colon
  TGI: > 10 µM
SN12C renal
  TGI: > 10 µM
UACC-62 melanoma
  TGI: > 10 µM
NCI/ADR-RES ovarian
  TGI: > 10 µM
NCI-H226 lung
  TGI: > 10 µM
COLO 205 colon
  TGI: > 10 µM
HOP-62 NSCLC
  TGI: > 10 µM
SK-OV-3 ovarian
  TGI: > 10 µM
EKVX NSCLC
  TGI: > 10 µM
RPMI-8226 leukemia
  TGI: > 10 µM
SK-MEL-28 melanoma
  TGI: > 10 µM
HCT-116 colon
  TGI: > 10 µM
A498 renal
  TGI: > 10 µM
UACC-257 melanoma
  TGI: > 10 µM
UO-31 renal
  TGI: > 10 µM
NCI-H23 lung
  TGI: > 10 µM
CCRF-CEM leukemia
  TGI: > 10 µM
MOLT-4 leukemia
  TGI: > 10 µM
786-0 renal
  TGI: > 10 µM
MCF7 breast
  TGI: > 10 µM
HS 578T breast
  TGI: > 10 µM
SR leukemia
  TGI: > 10 µM
LOX IMVI melanoma
  TGI: > 10 µM
IGROV1 ovarian
  TGI: > 10 µM
RXF 393 renal
  TGI: > 10 µM
K-562 leukemia
  TGI: > 10 µM
HL-60(TB) leukemia
  TGI: > 10 µM
SK-MEL-5 melanoma
  TGI: > 10 µM
CAKI-1 renal
  TGI: > 10 µM
SW-620 colon
  TGI: > 10 µM
A549 NSCLC
  TGI: > 10 µM
HCT-15 colon
  TGI: > 10 µM
OVCAR-4 ovarian
  TGI: > 10 µM
SF-268 CNS
  TGI: > 10 µM
OVCAR-5 ovarian
  TGI: > 10 µM
PC-3 prostate
  TGI: > 10 µM
KM12 colon
  TGI: > 10 µM
U251 CNS
  TGI: > 10 µM
SK-MEL-2 melanoma
  TGI: > 10 µM
TK-10 renal
  TGI: > 10 µM
SF-539 CNS
  TGI: > 10 µM
NCI-H460 lung
  TGI: > 10 µM
ACHN renal
  TGI: > 10 µM
DU-145 prostate
  TGI: > 10 µM
M14 melanoma
  TGI: > 10 µM
OVCAR-8 ovarian
  TGI: > 10 µM
BT-549 breast
  TGI: > 10 µM
